Like-named read-outs stand apart in the source and are kept apart here.
Key:
Recombinant human BACE-1 = target: T1, Recombinant human BACE-1 (Homo sapiens, UniProt P56817); assay: Assay of BACE-1 inhibiting activity; type: biochemical; settings: Recombinant human BACE-1 7.4 nmol/L, substrate peptide 18 nmol/L, pH 5.0, 30° C., 3.5 hours; read-out: IC50 value (50% inhibitory concentration against the enzymatic activity)
T1 construct: purchased R&D Systems
Experimental: 48.5 μL of substrate peptide solution (Biotin-XSEVNLDAEFRHDSGC-Eu: X=ε-amino-n-capronic acid, Eu=Europium cryptate) was added to each well of 96-hole half-area plate (a black plate: Costar), and after addition of 0.5 μl of the compound of the present invention (DMSO solution) and 1 μl of Recombinant human BACE-1 (R&D Systems), the reaction mixture was incubated at 30° C. for 3.5 hours. The substrate peptide was synthesized by reacting Cryptate TBPCOOH mono SMP (CIS bio international) with Biotin-XSEVNLDAEFRHDSGC (Peptide Institute, Inc.). The final concentrations of the substrate peptide and Recombinant human BACE-1 were adjusted to 18 nmol/L and 7.4 nmol/L, respectively, and the reaction was performed in sodium acetate buffer (50 mmol/L sodium acetate, pH 5.0, 0.008% Triton X-100).
After the incubation for reaction, 50 μl of 8.0 μg/ml Streptavidin-XL665 (CIS bio international) dissolved in phosphate buffer (150 mmol/L K2HPO4—KH2PO4, pH 7:0, 0.008% Triton X-100, 0.8 mol/L KF) was added to each well and left stand at 30° C. for 45 minutes. After then, fluorescence intensity was measured (excitation wavelength: 320 nm, measuring wavelength: 620 nm and 665 nm) using Wallac 1420 multilabel counter (Perkin Elmer life sciences). Enzymatic activity was determined from counting ratio of each wavelength (10,000×Count 665/Count 620) and 50% inhibitory concentration against the enzymatic activity (IC50) was calculated.

CYP3A4 = target: T2, CYP3A4 (Homo sapiens, UniProt P08684); assay: CYP3A4 fluorescent MBI test; type: in vitro ADME; settings: substrate 7-BFC; pre-reaction time 0 or 30 minutes; compound 0.625-20 μmol/L
T2 construct: host or cells: Escherichia coli (printed 'Escherichia cob')
Experimental: The CYP3A4 fluorescent MBI test is a test of investigating enhancement of CYP3A4 inhibition of a compound by a metabolism reaction. 7-benzyloxytrifluoromethylcoumarin (7-BFC) is debenzylated by the CYP3A4 enzyme (enzyme expressed in Escherichia cob) and 7-hydroxytrifluoromethylcoumarin (7-HFC) is produced as a fluorescing metabolite. The test is performed using 7-HFC production reaction as an index.
The reaction conditions are as follows: substrate, 5.6 […], 7-BFC; pre-reaction time, 0 or 30 minutes; reaction time, 15 minutes; reaction temperature, 25° C. […]
An enzyme in a K-Pi buffer (pH 7.4) and a compound of the present invention solution as a pre-reaction solution were added to a 96-well plate at the composition of the pre-reaction. […] Fluorescent values of 7-HFC as a metabolite were measured in each index reaction plate with a fluorescent plate reader (Ex=420 nm, Em=535 nm).
The sample adding DMSO to a reaction system instead of compound of the present invention solution is adopted as a control (100%) because DMSO is used as a solvent to dissolve a compound of the present invention. Remaining activity (%) was calculated at each concentration of the compound of the present invention added as the solution, and IC50 was calculated by reverse-presumption by a logistic model using a concentration and an inhibition rate. […]

[1] = BA test (oral absorption); type: in vivo, mouse or SD rat; settings: plasma; from AUCs of oral (1 to 30 mg/kg) and intravenous (0.5 to 10 mg/kg) administration groups
Experimental: Materials and Methods for Studies on Oral Absorption (1) Animal: mouse or SD rat (2) Breeding conditions: mouse or SD rat is allowed free access to the sterilized tap water and the solid food. […] (6) Evaluation items: blood was collected at the scheduled time, and the plasma concentration of the compound of the present invention was measured by LC/MS/MS (7) Statistical analysis: regarding the transition of the plasma concentration of the compound of the present invention, the area under the plasma concentration-time curve (AUC) was calculated by non-linear least squares program WinNonlin (Registered trademark), and the bioavailability (BA) of the compound of the present invention was calculated from the AUCs of the oral administration group and intravenous administration group

[2] = Solubility test (turbidity, JP-I, JP-II); type: physicochemical; settings: kinetic from dmso stock, 2% DMSO, turbidity after 4 hours
Experimental: A 2-fold dilution series (12 points) of a 10 mM solution of a compound of the present invention in DMSO was added to a medium (JP-I, JP-II) (2%), and solubility was assessed by 3 stages (High; >40 μM, Medium; 3-40 μM, Low; <3 μM) from a turbidity after 4 hours.

[3] = Metabolism stability test; type: in vitro ADME; settings: pooled human liver microsomes 0.5 mg protein/mL, 1 mmol/L NADPH, 37° C., 30 minutes; 0 minute = 100%
Experimental: Using a commercially available pooled human liver microsomes, a compound of the present invention is reacted for a constant time, a remaining rate is calculated by comparing a reacted sample and an unreacted sample, thereby, a degree of metabolism in liver was assessed.
A reaction was performed (oxidative reaction) at 37° C. for 0 minute or 30 minutes in the presence of 1 mmol/L NADPH in 0.2 mL of a buffer (50 mmol/L Tris-HCl pH 7.4, 150 mmol/L potassium chloride, 10 mmol/L magnesium chloride) containing 0.5 mg protein/mL of human liver microsomes. After the reaction, 50 μL of the reaction solution was added to 100 μL of a methanol/acetonitrile=1/1 (v/v), mixed and centrifuged at 3000 rpm for 15 minutes. The compound of the present invention in the supernatant was quantified by LC/MS/MS, and a remaining amount of the compound of the present invention after the reaction was calculated, letting a compound amount at 0 minute reaction time to be 100%.

T1 sequence (P56817 46-501): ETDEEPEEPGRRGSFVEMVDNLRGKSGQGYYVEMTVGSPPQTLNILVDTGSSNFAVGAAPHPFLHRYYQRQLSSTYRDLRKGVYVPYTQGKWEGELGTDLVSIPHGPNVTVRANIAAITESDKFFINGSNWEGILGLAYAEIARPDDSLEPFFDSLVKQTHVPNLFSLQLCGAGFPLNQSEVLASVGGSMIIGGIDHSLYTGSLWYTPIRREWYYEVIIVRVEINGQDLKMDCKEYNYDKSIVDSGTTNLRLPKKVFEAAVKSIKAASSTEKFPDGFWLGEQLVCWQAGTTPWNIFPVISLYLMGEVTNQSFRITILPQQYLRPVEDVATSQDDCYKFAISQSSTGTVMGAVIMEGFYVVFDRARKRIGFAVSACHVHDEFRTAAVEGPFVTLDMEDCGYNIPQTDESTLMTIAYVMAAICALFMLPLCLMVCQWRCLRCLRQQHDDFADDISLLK
T2 sequence (P08684 whole entry): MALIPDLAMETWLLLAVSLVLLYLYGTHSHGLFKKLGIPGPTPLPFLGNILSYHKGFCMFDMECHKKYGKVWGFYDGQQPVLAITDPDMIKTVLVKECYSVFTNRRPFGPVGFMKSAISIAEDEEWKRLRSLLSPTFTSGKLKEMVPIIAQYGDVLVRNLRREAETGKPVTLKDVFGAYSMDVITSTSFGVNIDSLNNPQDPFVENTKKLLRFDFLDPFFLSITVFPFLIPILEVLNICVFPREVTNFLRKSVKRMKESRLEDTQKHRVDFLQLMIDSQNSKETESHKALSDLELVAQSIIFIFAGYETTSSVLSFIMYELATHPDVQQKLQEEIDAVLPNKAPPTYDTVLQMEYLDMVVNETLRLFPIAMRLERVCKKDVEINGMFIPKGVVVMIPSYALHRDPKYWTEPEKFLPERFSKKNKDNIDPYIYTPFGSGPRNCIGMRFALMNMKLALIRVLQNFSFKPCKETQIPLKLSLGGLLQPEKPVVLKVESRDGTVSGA

IC50 (Recombinant human BACE-1) [nM] | SMILES | further results
≤ 1000 | C[C@@]1(c2cc(NC(=O)c3ccc(C#N)cn3)ccn2)CCSC(N)=N1 [Compound I-1] | CYP3A4 MBI: difference between IC50 values with and without preincubation, positive (+) / negative (−) (CYP3A4): (−) (When the difference was 3 μM or less, this was defined as negative(−))
≤ 1000 | C[C@@H]1C[C@@](C)(c2cc(NC(=O)c3ccccn3)ccn2)N=C(N)S1 [Compound I-273] | 
48 | C=C1C[C@@](C)(c2cc(NC(=O)c3ccc(C(F)F)cn3)ccn2)N=C(N)S1 [Compound I-11] | 
78 | C#Cc1ccc(C(=O)Nc2ccnc([C@]3(C)CCSC(N)=N3)c2)nc1 [Compound I-8] | 
≤ 1000 | C[C@@H]1C[C@@](C)(c2cc(NC(=O)c3cnccn3)ccn2)N=C(N)S1 [Compound I-294] | 
≤ 1000 | C[C@@]1(c2cc(NC(=O)c3ccc(C#N)cn3)ccn2)C=CSC(N)=N1.O=C(O)C(O)C(O)C(=O)O [Compound I-10] | bioavailability [1]: 96.7%
≤ 1000 | Cc1cnc(C(=O)Nc2ccnc([C@]3(C)C[C@@H](C)SC(N)=N3)c2)cn1 [Compound I-293] | 
≤ 1000 | CC#Cc1ccc(C(=O)Nc2ccnc([C@]3(C)CCSC(N)=N3)c2)nc1 [Compound I-9] | 
≤ 1000 | C[C@@]1(c2cc(NC(=O)c3ccccn3)ccn2)CCSC(N)=N1 [Compound I-272] | 
≤ 1000 | NC1=N[C@](CF)(c2cc(NC(=O)c3cnc(C(F)F)cn3)ccn2)CCS1 [Compound I-246] | 
 | COc1cnc(C(=O)Nc2ccnc([C@]3(C)C=CSC(N)=N3)c2)cn1 [Compound I-47] | solubility at 4 h ([2]; pH 1.2, simulated gastric fluid, medium JP-I, read-out: Solubility (3 stages) in JP-I): > 40 µM; solubility at 4 h ([2]; pH 6.8, fassgf or other biorelevant, medium JP-II, read-out: Solubility (3 stages) in JP-II): > 40 µM
 | CC(F)(F)Oc1ccc(C(=O)Nc2ccnc([C@]3(C)C=CSC(N)=N3)c2)nc1 [Compound I-24] | remaining amount of the compound after the reaction [3]: 98%
33 | C[C@@]1(c2cc(NC(=O)c3cnc(OC(F)F)cn3)ccn2)C=CSC(N)=N1 [Compound I-2] | 

— patent US20140235626A1, “PYRIDINE DERIVATIVES AND A PHARMACEUTICAL COMPOSITION FOR INHIBITING BACE1 CONTAINING THEM” (SHIONOGI & CO., LTD., priority 2011, published 2014)
